Tested on: Penicillium Chrysogenom
Test: Modified Agar plate method, fungicidal activity against Penicillium spores (number of colonies)
Format: cell-based
Conditions: Treatment II: 1 ml solution of Captan in water at 200 ppm

SMILES: O=C1C2CC=CCC2C(=O)N1SC(Cl)(Cl)Cl (stereo not shown) [CAPTAN, Captan]
- inhibition (observation of number of colonies): total inhibition

From patent US4087534A, “N-haloalkylmio urazole pesticides” (priority 1974, dated 1978)
